Test results taken from ChEMBL document CHEMBL4651402, “Screening of ~5500 FDA-approved drugs and clinical candidates for anti-SARS-CoV-2 activity” (2021).

Test system: SARS-CoV-2
Test: microbe, parasite or virus in culture
Conditions: Severe acute respiratory syndrome coronavirus 2, Vero C1008, 48 h

| Compound | IC50 | IC50 (read-out: pIC50 (converted)) |
| --- | --- | --- |
| [O-][n+]1ccccc1S [PYRITHIONE] | > 20 µM | > 20 µM |
| CCC1(CC)C(=O)C=CNC1=O [PYRITHYLDIONE] | > 20 µM | > 20 µM |
| Cc1ncc(CSSCc2cnc(C)c(O)c2CO)c(CO)c1O [PYRITINOL] | > 20 µM | > 20 µM |
| Oc1cccc(O)c1O [PYROGALLOL] | > 20 µM | > 20 µM |
| COc1ccc2nc3cc(Cl)ccc3c(Nc3cc(CN4CCCC4)c(O)c(CN4CCCC4)c3)c2n1 [PYRONARIDINE] | > 20 µM | > 20 µM |
| Cc1cccc(C)c1NC(=O)CN1CCCC1 [PYRROCAINE] | > 20 µM | > 20 µM |
| CC(=O)OC(Cc1ccccc1)(c1ccccc1)C(C)CN1CCCC1 (stereo unspecified) [PYRROLIPHENE] | > 20 µM | > 20 µM |
| O=[N+]([O-])c1c(Cl)cccc1-c1c[nH]cc1Cl [PYRROLNITRIN] | > 20 µM | > 20 µM |
| CC(=O)C(=O)O [PYRUVATE] | > 20 µM | > 20 µM |
| C[C@@H]1C(=O)NC2=Nc3cccc(Cl)c3CN21 [QUAZINONE] | > 20 µM | > 20 µM |
| COC(=O)c1nc2cc(Cl)c3cccnc3c2o1 [QUAZOLAST] | > 20 µM | > 20 µM |
| CO[C@H]1[C@H](O)[C@@H](O)[C@H](O)[C@H](O)[C@H]1O [QUEBRACHITOL] | > 20 µM | > 20 µM |
| O=c1c(O)c(-c2ccc(O)c(O)c2)oc2cc(O)cc(O)c12 [QUERCETIN] | > 20 µM | > 20 µM |
| OC(c1ccccc1)(c1ccccc1)C1CN2CCC1CC2 (stereo unspecified) [QUIFENADINE] | > 20 µM | > 20 µM |
| CCC1NC(=O)c2cc(S(N)(=O)=O)c(Cl)cc2N1 (stereo unspecified) [QUINETHAZONE] | > 20 µM | > 20 µM |
| O=C(Oc1ccc2c(c1)CCCN2C(=O)C(Cl)Cl)c1ccco1 [QUINFAMIDE] | > 20 µM | > 20 µM |
| C=C[C@H]1CN2CC[C@H]1C[C@H]2[C@H](O)c1ccnc2ccc(OC)cc12 [QUININE] | > 20 µM | > 20 µM |
| COc1cc(NCCCC(C)N)c2ncccc2c1 (stereo unspecified) [QUINOCIDE] | > 20 µM | > 20 µM |
| c1ccc2ncccc2c1 [QUINOLINE] | > 20 µM | > 20 µM |
| O=C(O)c1cccnc1C(=O)O [QUINOLINIC ACID] | > 20 µM | > 20 µM |
| CCOP(=S)(Oc1cccc2cccnc12)c1ccccc1 (stereo unspecified) [QUINTIOFOS] | > 20 µM | > 20 µM |
| c1ccc2nc(N3CCNCC3)ccc2c1 [QUIPAZINE] | > 20 µM | > 20 µM |
| CN(C)S(=O)(=O)c1ccc2c(c1)N(C1CN3CCC1CC3)c1ccccc1S2 (stereo unspecified) [QUISULTAZINE] | > 20 µM | > 20 µM |
| CC(C)(C)c1cc(NC(=O)Nc2ccc(-c3cn4c(n3)sc3cc(OCCN5CCOCC5)ccc34)cc2)no1 [QUIZARTINIB] | > 20 µM | > 20 µM |
| CCOC(=O)[C@H](C)NP(=O)(COCCn1cnc2c(NC3CC3)nc(N)nc21)N[C@@H](C)C(=O)OCC [RABACFOSADINE] | > 20 µM | > 20 µM |

| Compound | IC50 | IC50 (read-out: pIC50 (converted)) |
| --- | --- | --- |
| COCCCOc1ccnc(C[S+]([O-])c2nc3ccccc3[nH]2)c1C (stereo unspecified) [RABEPRAZOLE] | > 20 µM | > 20 µM |
| Cc1cnc(NC(=O)Nc2cc(Br)c(C)cc2OC[C@@H]2CNCCO2)cn1 [RABUSERTIB] | > 20 µM | > 20 µM |
| CCCCC1OC(=O)c2ccccc21 (stereo not drawn) [RAC-3-N-BUTYLPHTHALIDE] | > 20 µM | > 20 µM |
| CC(Oc1ccc(Cl)cc1Cl)C(=O)O (stereo not drawn) [RAC-DICHLORPROP] | > 20 µM | > 20 µM |
| CC(=O)SCC(Cc1ccccc1)C(=O)NCC(=O)OCc1ccccc1 (stereo unspecified) [RACECADOTRIL] | > 20 µM | > 20 µM |
| CN1CCC23CCCCC2C1Cc1ccc(O)cc13 (stereo not drawn) [RACEMORPHAN] | > 20 µM | > 20 µM |
| CNCC(O)c1ccc(O)c(O)c1 (stereo unspecified) [RACEPINEPHRINE] | > 20 µM | > 20 µM |
| CCN1CCC[C@H]1CNC(=O)c1c(O)c(Cl)cc(Cl)c1OC [RACLOPRIDE] | > 20 µM | > 20 µM |
| CC(=O)NC[C@H]1CN(c2ccc(-c3ccc(CNCc4cnn[nH]4)cc3)c(F)c2)C(=O)O1 [RADEZOLID] | > 20 µM | > 20 µM |
| Cn1c(Nc2ccc(C(F)(F)F)cc2)nc2cc(Oc3ccnc(-c4ncc(C(F)(F)F)[nH]4)c3)ccc21 [RAF-265] | > 20 µM | > 20 µM |
| O=C(Nc1ccc(Oc2ccc(Cl)cc2)c(Cl)c1)c1cc(I)cc(I)c1O [RAFOXANIDE] | > 20 µM | > 20 µM |
| C[C@H](NCc1ccc(OCc2ccccc2F)cc1)C(N)=O [RALFINAMIDE] | > 20 µM | > 20 µM |
| CC(C)(C)Cn1c(N)nc2ccc(-c3[nH]c(C(C)(C)C)nc3-c3ccc(F)cc3)nc21 [RALIMETINIB] | > 20 µM | > 20 µM |
| Cc1cccc(Cl)c1NC(=O)/C=C1\SCC(=O)N1C [RALITOLINE] | > 20 µM | > 20 µM |
| O=C(c1ccc(OCCN2CCCCC2)cc1)c1c(-c2ccc(O)cc2)sc2cc(O)ccc12 [RALOXIFENE] | > 20 µM | > 20 µM |
| Cc1c(NC(C)C)c(=O)n(-c2ccccc2)n1C [RAMIFENAZONE] | > 20 µM | > 20 µM |
| Cn1cc(C(=O)[C@@H]2CCc3[nH]cnc3C2)c2ccccc21 [RAMOSETRON] | > 20 µM | > 20 µM |
| CNC(=C[N+](=O)[O-])NCCSCc1ccc(CN(C)C)o1 [RANITIDINE] | > 20 µM | > 20 µM |
| COc1ccccc1OCC(O)CN1CCN(CC(=O)Nc2c(C)cccc2C)CC1 (stereo unspecified) [RANOLAZINE] | > 20 µM | > 20 µM |
| C#CCN[C@@H]1CCc2ccccc21 [RASAGILINE] | > 20 µM | > 20 µM |
| CN(C)Cc1nccn1-c1ccc(NC(=O)c2cc(C(F)(F)F)nn2-c2ccc3onc(N)c3c2)c(F)c1 [RAZAXABAN] | > 20 µM | > 20 µM |
| O=C(NC(Cc1cc(=O)[nH]c2ccccc12)C(=O)O)c1ccc(Cl)cc1 (stereo unspecified) [REBAMIPIDE] | > 20 µM | > 20 µM |
| CNC(=O)c1cc(Oc2ccc(NC(=O)Nc3cc(C(C)(C)C)nn3-c3ccc4ncccc4c3)c(F)c2)ccn1 [REBASTINIB] | > 20 µM | > 20 µM |
| COc1ccc(-c2cc(=O)c3c(OC)cc(OCC(=O)O)cc3o2)cc1OC [RECOFLAVONE] | > 20 µM | > 20 µM |
| COc1cc(F)c(F)c(Nc2ccc(I)cc2F)c1NS(=O)(=O)C1(C[C@H](O)CO)CC1 [REFAMETINIB] | > 20 µM | > 20 µM |

| Compound | IC50 | IC50 (read-out: pIC50 (converted)) |
| --- | --- | --- |
| CNC(=O)c1cnn(-c2nc(N)c3ncn([C@@H]4O[C@H](CO)[C@@H](O)[C@H]4O)c3n2)c1 [REGADENOSON ANHYDROUS] | > 20 µM | > 20 µM |
| Cc1oc(-c2ccccc2)nc1CCOc1ccc(CC2C(=O)NOC2=O)cc1 (stereo unspecified) [REGLITAZAR] | > 20 µM | > 20 µM |
| CNC(=O)c1cc(Oc2ccc(NC(=O)Nc3ccc(Cl)c(C(F)(F)F)c3)c(F)c2)ccn1 [REGORAFENIB] | > 20 µM | > 20 µM |
| COc1ccc(S(=O)(=O)N2c3ccc(Cl)cc3[C@](O)(c3ccccc3Cl)[C@@H]2C(=O)N2CCC[C@H]2C(N)=O)cc1OC [RELCOVAPTAN] | > 20 µM | > 20 µM |
| CC(Cc1ccccc1)(NC(=O)CN)c1ccccc1 (stereo unspecified) [REMACEMIDE] | > 20 µM | > 20 µM |
| C=CC(=O)N(C)CCOc1c(N)ncnc1-c1cc(F)cc(NC(=O)c2ccc(C3CC3)cc2F)c1C [REMIBRUTINIB] | > 20 µM | > 20 µM |
| COc1cccc(OC)c1-c1cc(C(=O)NC2(C(=O)O)C3CC4CC(C3)CC2C4)nn1-c1ccnc2cc(Cl)ccc12 (stereo unspecified) [REMINERTANT] | > 20 µM | > 20 µM |
| CCN1CCC[C@H]1CNC(=O)c1c(OC)ccc(Br)c1OC [REMOXIPRIDE] | > 20 µM | > 20 µM |
| COc1cc(N)c(Cl)cc1C(=O)NC1CCN2CCCC1C2 (stereo unspecified) [RENZAPRIDE] | > 20 µM | > 20 µM |
| CCOc1cc(CC(=O)N[C@@H](CC(C)C)c2ccccc2N2CCCCC2)ccc1C(=O)O [REPAGLINIDE] | > 20 µM | > 20 µM |
| CCOCc1nc2c(N)nc3ccccc3c2n1CC(C)(C)O [RESIQUIMOD] | > 20 µM | > 20 µM |
| CN(C)Cc1ccc(S(=O)(=O)n2ccc(/C=C/C(=O)NO)c2)cc1 [RESMINOSTAT] | > 20 µM | > 20 µM |
| Oc1cccc(O)c1 [RESORCINOL] | > 20 µM | > 20 µM |
| Oc1ccc(/C=C/c2cc(O)cc(O)c2)cc1 [RESVERATROL] | > 20 µM | > 20 µM |
| CCCCCC(O)c1cccc(OCc2ccc3ccccc3n2)c1 (stereo unspecified) [REV-5901] | > 20 µM | > 20 µM |
| CC(C)(C(=O)NCC(F)(F)C(F)(F)F)C(=O)N[C@@H]1C(=O)Nc2ccccc2-c2ccccc21 [RG-4733] | > 20 µM | > 20 µM |
| COC1=C(O)C(=O)c2c(cc3oc(C(C)=O)c(O)c3c2O)C1=O [RHODOCLADONIC ACID] | > 20 µM | > 20 µM |
| NC(=O)c1ncn([C@@H]2O[C@H](CO)[C@@H](O)[C@H]2O)n1 [RIBAVIRIN] | > 50.1 µM | > 50.1 µM |
| NC[C@H]1O[C@H](O[C@H]2[C@H](O[C@@H]3O[C@H](CO)[C@@H](O)[C@H]3O)[C@@H](O)[C@H](N)C[C@@H]2N)[C@H](N)[C@@H](O)[C@@H]1O [RIBOSTAMYCIN] | > 20 µM | > 20 µM |
| COc1ccn(C)c(=O)c1C#N [RICININE] | > 20 µM | > 20 µM |
| O=C(CCCCCCNC(=O)c1cnc(N(c2ccccc2)c2ccccc2)nc1)NO [RICOLINOSTAT] | > 20 µM | > 20 µM |
| O=C(O)CCCCO/N=C(/c1cccnc1)c1cccc(C(F)(F)F)c1 [RIDOGREL] | > 20 µM | > 20 µM |
| CO[C@H]1/C=C/O[C@@]2(C)Oc3c(C)c(O)c4c(c3C2=O)C2=NC3(CCN(CC(C)C)CC3)NC2=C(NC(=O)/C(C)=C\C=C\[C@H](C)[C@H](O)[C@@H](C)[C@@H](O)[C@@H](C)[C@H](OC(C)=O)[C@@H]1C)C4=O [RIFABUTIN] | > 20 µM | > 20 µM |
